Literature values as cited in patent US9738620B2, “Trientine prodrugs, pharmaceutical compositions thereof, and methods of use” (priority 2015, dated 2017).

Conditions: Lu., Molecular Cancer Therapeutics. 2010, 9 (9), 2458-67

oral bioavailability: 8-30%
SMILES: NCCNCCNCCN [Trientine]
